From the Kinase Knowledgebase extract (Sharma et al. 2016)
pIC50, pKi: −log10 of the molar value.

Assays:
CDK2 [1] = biological target: CDK2 (UniProt P24941); assay: Enzyme Assay
ROCK2 = ROCK2 (UniProt O75116); assay: Inhibition of ROCK2 Kinase Activity; details: concentration not given here
MAPK14 = MAPK14 (UniProt Q16539); assay: Inhibition of MAPK14 Kinase Activity; details: concentration not given here
CDK2 [2] = biological target: CDK2 (UniProt P24941); assay: Enzyme Assay; remark: listed apart in the source

MAPK14, sequence (Q16539 whole entry, looked up): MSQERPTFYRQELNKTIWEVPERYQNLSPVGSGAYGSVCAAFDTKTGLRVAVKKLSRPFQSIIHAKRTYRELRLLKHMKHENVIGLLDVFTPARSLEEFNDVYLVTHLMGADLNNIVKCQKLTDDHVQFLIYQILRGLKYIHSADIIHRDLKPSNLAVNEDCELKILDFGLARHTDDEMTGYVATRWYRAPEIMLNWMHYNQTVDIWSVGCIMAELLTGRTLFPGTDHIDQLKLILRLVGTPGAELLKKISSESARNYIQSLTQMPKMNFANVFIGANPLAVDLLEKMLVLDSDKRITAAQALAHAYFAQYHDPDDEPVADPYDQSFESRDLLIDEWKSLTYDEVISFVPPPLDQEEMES
ROCK2, sequence (O75116 whole entry, looked up): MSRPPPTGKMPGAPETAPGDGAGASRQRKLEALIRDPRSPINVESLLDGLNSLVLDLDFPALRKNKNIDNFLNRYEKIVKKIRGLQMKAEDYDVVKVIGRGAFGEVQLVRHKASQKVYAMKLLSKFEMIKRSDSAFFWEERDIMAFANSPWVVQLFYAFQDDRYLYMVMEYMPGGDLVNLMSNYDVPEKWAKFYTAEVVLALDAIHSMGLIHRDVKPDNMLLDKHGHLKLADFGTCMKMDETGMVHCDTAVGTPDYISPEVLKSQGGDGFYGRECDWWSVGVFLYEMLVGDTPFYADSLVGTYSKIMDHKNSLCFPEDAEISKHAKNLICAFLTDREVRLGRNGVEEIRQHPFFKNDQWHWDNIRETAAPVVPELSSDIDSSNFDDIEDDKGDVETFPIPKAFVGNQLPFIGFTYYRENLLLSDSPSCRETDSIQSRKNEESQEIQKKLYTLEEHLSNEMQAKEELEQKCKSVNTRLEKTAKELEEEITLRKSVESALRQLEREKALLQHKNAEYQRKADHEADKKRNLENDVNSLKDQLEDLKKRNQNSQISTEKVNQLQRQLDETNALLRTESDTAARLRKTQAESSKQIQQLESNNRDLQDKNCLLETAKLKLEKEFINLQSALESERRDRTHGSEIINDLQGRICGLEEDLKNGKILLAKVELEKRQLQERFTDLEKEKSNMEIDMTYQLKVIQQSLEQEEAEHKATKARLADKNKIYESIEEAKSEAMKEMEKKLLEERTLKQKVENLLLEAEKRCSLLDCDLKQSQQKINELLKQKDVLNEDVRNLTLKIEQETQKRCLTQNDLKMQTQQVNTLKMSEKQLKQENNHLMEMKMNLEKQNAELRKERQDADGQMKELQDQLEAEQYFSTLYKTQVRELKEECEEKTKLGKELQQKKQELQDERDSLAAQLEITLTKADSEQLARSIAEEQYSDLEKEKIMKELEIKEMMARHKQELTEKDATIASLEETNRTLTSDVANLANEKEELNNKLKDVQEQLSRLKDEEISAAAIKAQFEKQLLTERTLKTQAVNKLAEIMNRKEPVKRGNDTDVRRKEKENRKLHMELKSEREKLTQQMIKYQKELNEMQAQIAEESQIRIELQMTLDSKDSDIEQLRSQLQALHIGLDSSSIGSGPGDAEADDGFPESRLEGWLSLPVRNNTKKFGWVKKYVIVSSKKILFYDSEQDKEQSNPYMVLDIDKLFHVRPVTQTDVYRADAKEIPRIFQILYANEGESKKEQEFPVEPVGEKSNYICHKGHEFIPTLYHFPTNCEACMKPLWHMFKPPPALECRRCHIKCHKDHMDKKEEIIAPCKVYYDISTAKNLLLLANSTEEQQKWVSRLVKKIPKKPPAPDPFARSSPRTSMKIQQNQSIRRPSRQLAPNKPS

| Structure (SMILES) | pIC50 (CDK2 [1]) | pKi (CDK2 [1]) | inhibition (ROCK2) [%] | inhibition (MAPK14) [%] | pIC50 (CDK2 [2]) | pKi (CDK2 [2]) |
| --- | --- | --- | --- | --- | --- | --- |
| COc1ccc(Nc2nccc(-c3nccs3)n2)cn1 | < 4.30 |  |  |  | < 4.00 |  |
| COc1ccc(Nc2nccc(-c3nc(C)c(C)s3)n2)cn1 | < 6.00 |  |  |  | < 5.00 |  |
| Cc1nc(-c2ccnc(Nc3ccc(Cl)nc3)n2)sc1C | < 5.00 |  |  |  | < 5.00 |  |

The remaining lines, values ahead:

| pIC50 (CDK2 [1]) | pKi (CDK2 [1]) | inhibition (ROCK2) [%] | inhibition (MAPK14) [%] | pIC50 (CDK2 [2]) | pKi (CDK2 [2]) | Structure (SMILES) |
| --- | --- | --- | --- | --- | --- | --- |
| 4.96 | 5.26 | 13 | 16 | < 4.30 | < 4.30 | Clc1ccc(Nc2nccc(-c3nccs3)n2)cn1 |
| < 6.00 |  |  |  | < 5.00 |  | CCOC(=O)c1sc(-c2ccnc(Nc3ccc(Cl)cc3)n2)nc1O |
